Test results from US6420425B1, “Method for the broad based treatment of infections especially infections of organs such as the skin and vagina” (priority 1997, dated 2002).

What was measured:
vulvovaginal candidiasis = details: in vivo; cited from earlier work
Pseudomonas aeruginosa = details: microtiter broth, 35.5° C., 18 to 24 hours
Experimental: (§1) The susceptibility of selected pathogens to individual and mixtures of acetic and boric acid was investigated, in vitro. Fresh isolates of Staphylococcus intermedius, Pseudomonas aeruginosa, Candida albicans, Microsporum canis and Malassezia pachydermatis were obtained from VHUP Clinical Veterinary Microbiology Laboratory. Staphylococcus and Pseudomonas were grown on Mueller-Hinton (M-H) broth overnight at approximately 37° C. and fungi were inoculated into Sabourauds Antibiotic broth medium and incubated at 25° C. for 4 days. Stock dilutions (2x) of both boric acid and acetic acid were prepared in M-H broth (for bacteria studies) or in Sabourauds Antibiotic Broth (for fungal studies). These concentrations were 1.0%, 4.0%, 7.5% and 10.0%. The stock solutions were used to prepare the full spectrum of all possible combinations of acetic and boric acids in 96 well microtiter plates. All wells were raised to a final volume of 100 ul as required. The organisms were diluted to an approximate concentration of 10^5 cfu and 10 ul of this preparation was inolculated into each well with an 8 channel micropipeter. The microtiter plates containing the bacteria were incubated at 35.5° C. for 18 to 24 hours. The plates containing the fungi were incubated at 25° C. for 3-5 days. The presence of the growth in the wells was recorded. These values determine the Minimum Inhibitory Concentration (MIC) of the acids at individual and mixed concentrations.

Candida albicans [1] = details: microtiter broth, 25° C., 3-5 days
Experimental: as §1

[2] = system: Staphylococcus intermedius; details: microtiter broth, 35.5° C., 18 to 24 hours
Experimental: as §1

Candida albicans [3] = details: in vitro; cited from earlier work
fungi causing otomycosis = details: in vitro, five fungi; cited from earlier work

SMILES	efficacy in treating vulvovaginal candidiasis (vulvovaginal candidiasis)	growth inhibition (Pseudomonas aeruginosa)	growth inhibition (Candida albicans [1])	growth inhibition [2]	activity against Candida albicans (Candida albicans [3])	fungitoxic effect (fungi causing otomycosis)
OB(O)O [Boric acid, boric acid]	effective	inhibited	inhibited	inhibited	fungistatic	
CC(=O)O [acetic acid]						Some antifungal effect
